In the supplement of paper PMC13380429:
± gives the standard deviation of the averaged measurements.

How the values were obtained:
Conditions in all cases: 72 h
Caco-2 [1] = assay: relative viability EC50 (midpoint between 100% and the lowest measured viability); higher = less toxic
Calu-3 [2] = assay: as above
HepG2 [3] = assay: as above
U2OS [4] = assay: as above
Vero E6 [5] = assay: as above
Caco-2 [6] = assay: cell viability relative to DMSO; higher = less toxic
Calu-3 [7] = assay: as above
HepG2 [8] = assay: as above
U2OS [9] = assay: as above
Vero E6 [10] = assay: as above
Caco-2 [11] = assay: drug sensitivity score (DSS) for viability; higher = more toxic; extreme values may be limits of the assay
Calu-3 [12] = assay: as above
HepG2 [13] = assay: as above
U2OS [14] = assay: as above
Vero E6 [15] = assay: as above

Structure (SMILES) | relative viability EC50 (Caco-2 [1]) | relative viability EC50 (Calu-3 [2]) | relative viability EC50 (HepG2 [3]) | relative viability EC50 (U2OS [4]) | relative viability EC50 (Vero E6 [5]) | cell viability (Caco-2 [6]; 1 nM) | cell viability (Caco-2 [6]; 10 nM) | cell viability (Caco-2 [6]; 100 nM) | cell viability (Caco-2 [6]; 1000 nM) | cell viability (Caco-2 [6]; 10000 nM) | cell viability (Calu-3 [7]; 1 nM) | cell viability (Calu-3 [7]; 10 nM) | cell viability (Calu-3 [7]; 100 nM) | cell viability (Calu-3 [7]; 1000 nM) | cell viability (Calu-3 [7]; 10000 nM) | cell viability (HepG2 [8]; 1 nM) | cell viability (HepG2 [8]; 10 nM) | cell viability (HepG2 [8]; 100 nM) | cell viability (HepG2 [8]; 1000 nM) | cell viability (HepG2 [8]; 10000 nM) | cell viability (U2OS [9]; 1 nM) | cell viability (U2OS [9]; 10 nM) | cell viability (U2OS [9]; 100 nM) | cell viability (U2OS [9]; 1000 nM) | cell viability (U2OS [9]; 10000 nM) | cell viability (Vero E6 [10]; 1 nM) | cell viability (Vero E6 [10]; 10 nM) | cell viability (Vero E6 [10]; 100 nM) | cell viability (Vero E6 [10]; 1000 nM) | cell viability (Vero E6 [10]; 10000 nM) | drug sensitivity score (Caco-2 [11]) | drug sensitivity score (Calu-3 [12]) | drug sensitivity score (HepG2 [13]) | drug sensitivity score (U2OS [14]) | drug sensitivity score (Vero E6 [15])
CC1CNc2c(cccc2S(=O)(=O)N[C@@H](CCCNC(=N)N)C(=O)N2CC[C@@H](C)C[C@@H]2C(=O)O)C1 (mixture of isomers) [argatroban] | > 10 µM | > 10 µM | > 10 µM | > 10 µM | > 10 µM | 96.5% | 97.1% | 86.3% | 105% | 94.3% | 91.3% | 97.4% | 98.7% | 93.8% | 94.6% | 113% | 93.7% | 96.1% | 87.4% | 97.8% | 98.2% | 104% | 98.9% | 102% | 96.2% | 97.7% | 99.1% | 99.2% | 93.4% | 102% | 0 | 0 | 0 | 0 | 0
CC(C)[C@H](N)C(=O)OCC(CO)OCn1cnc2c(=O)nc(N)[nH]c21 (mixture of isomers) [valganciclovir] | > 10 µM | > 10 µM | > 10 µM | > 10 µM | > 10 µM | 94.3% | 107% | 103% | 114% | 80% | 107% | 101% | 108% | 104% | 91.8% | 97.9% | 95% | 97.3% | 95.8% | 90.5% | 90.7% | 102% | 98.2% | 104% | 108% | 99.3% | 91.8% | 103% | 97.4% | 97.4% | 0.3 | 0 | 0 | 0 | 0
CN(C)CC[C@@]1(c2ccc(Cl)cc2)Cc2ccccc2C(=O)O1 (racemic) [AC-7954-(+/-)] | > 10 µM | > 10 µM | > 10 µM | > 10 µM | > 10 µM | 103% | 92.4% | 98.3% | 102% | 106% | 98.2% | 104% | 103% | 96.5% | 104% | 89.8% | 104% | 104% | 96.4% | 94.8% | 99% | 94.9% | 99.4% | 105% | 102% | 91.4% | 94.8% | 88.3% | 92.8% | 100% | 0 | 0 | 0 | 0 | 0
CN/C(=N\S(=O)(=O)c1ccc(Cl)cc1)N1C[C@H](c2ccccc2)C(c2ccc(Cl)cc2)=N1 (racemic) [SLV-319-(+/-)] | > 10 µM | > 10 µM | > 10 µM | > 10 µM | > 10 µM | 95.1% | 96.3% | 100% | 103% | 83.1% | 107% | 98.5% | 100% | 118% | 111% | 108% | 94.2% | 99.9% | 89.6% | 93.7% | 99.9% | 99.1% | 102% | 98.9% | 93.1% | 98.1% | 105% | 100% | 91.3% | 94.8% | 0.2 | 0 | 0.1 | 0 | 0
C[C@@H](C(=O)O)c1ccc(-c2ccccc2)c(F)c1 (racemic) [flurbiprofen-(+/-)] | > 10 µM | > 10 µM | > 10 µM | > 10 µM | > 10 µM | 98.7 ± 8% | 95.2 ± 2.5% | 95.5 ± 4% | 96 ± 3.3% | 96 ± 8.2% | 92.6 ± 3.4% | 98.7 ± 5.3% | 93.3 ± 9.1% | 96.3 ± 3.1% | 98.3 ± 12% | 94.95 ± 0.21% | 101 ± 9.9% | 94.9 ± 4% | 101 ± 2.8% | 100 ± 1.4% | 101.1 ± 1% | 100 ± 7.2% | 99.4 ± 2.7% | 99 ± 2.2% | 96.4 ± 5% | 100 ± 1.8% | 100 ± 1.6% | 97.15 ± 0.92% | 95.7 ± 6.5% | 97.2 ± 1.3% | 0 | 0.0333 ± 0.058 | 0 | 0 | 0
NC(Cc1ccc(I)cc1)C(=O)O (stereo in doubt) [4-iodo-L-phenylalanine] | > 10 µM | > 10 µM | > 10 µM | > 10 µM | > 10 µM | 102% | 97.4% | 98.2% | 97.3% | 106% | 103% | 101% | 106% | 108% | 95.2% | 96.3% | 101% | 82.5% | 104% | 109% | 102% | 97.8% | 98.8% | 102% | 97.6% | 96.7% | 99.2% | 97.4% | 94.4% | 103% | 0 | 0 | 0 | 0 | 0
O=C(O)c1cc(O)c2c(Cl)cc(Cl)cc2n1 [5,7-dichlorokynurenic-acid] | > 10 µM | > 10 µM | > 10 µM | > 10 µM | > 10 µM | 98.7% | 98.1% | 96.1% | 92.1% | 96.8% | 105% | 99.8% | 98.8% | 110% | 112% | 96.3% | 99.3% | 106% | 96.5% | 102% | 96% | 98.2% | 98.2% | 103% | 95.7% | 95.3% | 96.4% | 100% | 98.6% | 98.3% | 0 | 0 | 0 | 0 | 0
CC[C@@]1(O)C(=O)OCc2c1cc1n(c2=O)Cc2cc3cc(O)ccc3nc2-1 [10-hydroxycamptothecin] | 0.573 µM | 0.0695 µM | 0.0158 µM | 0.715 µM | 0.9 µM | 94.2% | 107% | 89.3% | 43% | 13.2% | 95.8% | 97.5% | 48.7% | 31.4% | 20.2% | 102% | 47.8% | 31.2% | 5.3% | 2.1% | 102% | 106% | 90.1% | 41.6% | 1.7% | 97.4% | 97.5% | 92.9% | 59.9% | 22.5% | 12.2 | 20.5 | 31.8 | 12.7 | 9.1
CC(C)(C)c1cc(C=C(C#N)C#N)cc(Br)c1O [AG-1024] | > 10 µM | > 10 µM | > 10 µM | > 10 µM | > 10 µM | 98.8% | 96.8% | 101% | 93.3% | 77.4% | 104% | 92.4% | 92% | 87.8% | 100% | 102% | 110% | 109% | 119% | 79.8% | 105% | 106% | 102% | 96.4% | 99.2% | 102% | 96.8% | 98.1% | 94.8% | 92.4% | 1.7 | 0 | 0.3 | 0 | 0
Cc1ccccc1C(C(=O)NC1CCCCC1)N(C(=O)Cn1ccnc1C)c1cccc(F)c1 (stereo not given) [AGI-5198] | > 10 µM | > 10 µM | > 10 µM | > 10 µM | > 10 µM | 98.4% | 97.5% | 87.9% | 103% | 90.6% | 93.6% | 95.7% | 85.4% | 90.3% | 87.4% | 103% | 99.3% | 112% | 88.6% | 103% | 96.6% | 103% | 102% | 106% | 93.2% | 100% | 100% | 98.9% | 99.2% | 101% | 0 | 0.8 | 0 | 0 | 0
N#C/C(=C\c1cccn1S(=O)(=O)c1cccc([N+](=O)[O-])c1)S(=O)(=O)c1ccc(F)cc1 [AMZ30] | > 10 µM | > 10 µM | > 10 µM | > 10 µM | > 10 µM | 104% | 99% | 95.3% | 96.3% | 84.8% | 90.5% | 98% | 104% | 105% | 108% | 95.8% | 105% | 119% | 93.7% | 103% | 102% | 101% | 96.8% | 96.2% | 94.1% | 98.6% | 97.6% | 96.4% | 94.9% | 93.3% | 0.4 | 0 | 0 | 0 | 0
CCNC(=O)NS(=O)(=O)c1sc(CC(C)C)cc1-c1ccc(Cn2c(-c3ccccc3)nc(OC)c2C=O)cc1 [AVE-0991] | > 10 µM | > 10 µM | > 10 µM | > 10 µM | > 10 µM | 108% | 97.5% | 99.1% | 90.1% | 97.7% | 107% | 104% | 110% | 93.8% | 97.9% | 102% | 99.6% | 101% | 108% | 102% | 104% | 99.7% | 103% | 100% | 102% | 99.9% | 98.3% | 97.7% | 93.3% | 96% | 0 | 0 | 0 | 0 | 0
C/C(=C\C(=O)Nc1ccccc1C(=O)O)c1ccc2ccccc2c1 [BIBR-1532] | > 10 µM | > 10 µM | > 10 µM | > 10 µM | > 10 µM | 94.1% | 100% | 103% | 98% | 95.8% | 101% | 102% | 98.2% | 108% | 98% | 97.6% | 98% | 94.9% | 110% | 118% | 93.8% | 96.9% | 95.5% | 93.3% | 103% | 105% | 99.9% | 97.5% | 103% | 105% | 0 | 0 | 0 | 0 | 0
c1ccc2cc(C3=NCCN3)ncc2c1 [BU226] | > 10 µM | > 10 µM | > 10 µM | > 10 µM | > 10 µM | 103% | 108% | 94.3% | 97.7% | 101% | 112% | 97.5% | 97% | 97.4% | 91.8% | 102% | 95.7% | 86.1% | 103% | 104% | 105% | 108% | 99.7% | 106% | 100% | 96.6% | 97.1% | 96.5% | 94.6% | 98.7% | 0 | 0 | 0 | 0 | 0
